The values that follow are results of earlier work, collected in PMC6154651 (Molecules : A Journal of Synthetic Chemistry and Natural …, 2017).

Series [1] deals with FXR-LBD (ligand binding domain).
A further series concerns LCA-induced cholestasis. Particulars: mice, low dose 20 mg/kg.
Another series relates to obstructive cholestasis. Conditions: bile duct-ligated mice.
Series [2] deals with FXR. Conditions: HepG2 cells.
In series [3] the test system is FXR. Details: method as in PMID 16626693.

Consider `CC1(C)CC[C@]2(C(=O)O)CC[C@]3(C)C(=CC[C@@H]4[C@@]5(C)CC[C@H](O)C(C)(C)[C@@H]5CC[C@]43C)[C@@H]2C1` [Compound 1, oleanolic acid], for which, in series [1], the “activity of FXR-LBD induced by CDCA” value was “dose-dependently suppressed”. Moreover, the “protection against LCA-induced cholestasis” value in the series on LCA-induced cholestasis is given as “could protect”. For the same compound, the “effect on obstructive cholestasis” value in the series on obstructive cholestasis was “attenuate obstructive cholestasis”. In the series on FXR [2] (25 μM), the “CDCA induction of bile salt export protein (BSEP)” value is given as “partially blocked” and the “expression of organic solute transporter (OST-β)” value was “did not affect”. Besides, in the series with FXR [2], the “expression levels of cholesterol 7α-hydroxylase (CYP7A1)” value is recorded as “suppressed” and the “expression of short heterodimer partner (SHP)” value is given as “slightly enhanced”.
As for `CC1(C)CCC2(C(=O)O)CCC3(C)C(=CCC4C5(C)CCC(OC(=O)c6ccccc6C(=O)O)C(C)(C)C5CCC43C)C2C1` (stereo not drawn) [NPLC441, 3-β-(2-carboxybenzoyloxy)-oleanolic acid], the “binding to retinoid X receptor-LBD” value in the series on retinoid X receptor-LBD is recorded as “bound strongly”.
For the compound `C[C@@H]1O[C@@H](O[C@H]2[C@H](OC(=O)[C@]34CCC(C)(C)C[C@H]3C3=CC[C@@H]5[C@@]6(C)C[C@H](O)[C@H](O[C@@H]7O[C@H](CO)[C@@H](O)[C@H](O)[C@H]7O)C(CO)(CO)[C@@H]6CC[C@@]5(C)[C@]3(C)C[C@H]4O)OC[C@H](O)[C@@H]2O)[C@H](O)[C@H](O)[C@H]1O[C@@H]1OC[C@@H](O)[C@H](O[C@@H]2OC[C@](O)(CO)[C@H]2O)[C@H]1O` [platycodin D], the “activity on FXR” value in the series on FXR [3] is given as “weak activity”.
